Test results from patent US9187455B2, “Substituted pyridazines as PDE10A inhibitors” (Hoffmann-La Roche Inc., priority 2009, dated 2015).

Target: T1, PDE10A2 (Homo sapiens, UniProt Q9Y233)
T1 construct: residues serine 449 to aspartate 789; His6 (H6) with Gateway linker and thrombin cleavage site (N, cleaved yes); made in house; host or cells: E. coli BL21(DE3) pLysS
Assay: PDE10A2 Scintillation Proximity Assay (SPA), [3H]-cGMP hydrolysis
Type: biochemical
Conditions: catalytic domain of human PDE10A2 (S449-D789), 0.25 nM enzyme, 50 nM cGMP + 50 nM [3H]-cGMP, 30 minutes at room temperature; read-out: PDE10A2 inhibition IC50
Method: The following tests were carried out in order to determine the activity of the compounds of the present invention. PDE10 activity of the compounds of the present invention is determined using a Scintillation Proximity Assay (SPA)-based method similar to the one previously described (Fawcett, L. et al., ProcNatl Acad Sci USA (2000) 97(7):3702-3707).
PDE10A1 and PDE10A2 are two splice variants of PDE10A. There are these 2 splice variants known, which differ in the N-terminal part of the protein. The catalytic domains of PDE10A1 and PDE10A2 are identical. The assay for PDE10A2 described below is therefore also representative for PDE10A1 and also for PDE10A in general.
The PDE10A2 assay was performed in a two step procedure in 96-well micro titer plates. The reaction mixture of 80 μl contained 20 mM HEPES/10 mM MgCl2/[…] (pH 7.5), 50 nM cGMP (Sigma) and 50 nM [^3H]-cGMP (GE Healthcare), 0.25 nM PDE10A2 with or without a specific test compound. A range of concentrations of the potential inhibitor was used to generate data for calculating the concentration of inhibitor resulting in 50% of the effect (e.g. IC50, the concentration of the competitor inhibiting PDE10A2 activity 50%). Non-specific activity was tested without the enzyme. The reaction was initiated by addition of the substrate solution (cGMP and [^3H]-cGMP) and allowed to progress for 30 minutes at room temperature. The reaction was terminated by transferring 50 μl of the reaction mixture into an OptiPlate (Perkin Elmer) containing 25 μl of YSi-SPA scintillation beads (GE Healthcare) in 18 mM zinc sulphate solution (stop reagent). After 1 h under shaking, the plate was centrifuged one minute at 1000 rpm to allow beads to settle. Afterwards, radioactive counts were measured on a Perkin Elmer TopCount Scintillation plate reader.
The catalytic domain of human PDE10A2, residues serine 449 to aspartate 789, was amplified by PCR using cDNA (Origene) and the oligonucleotides 5′-GGGGACAAGTTTGT […]-3′ (with AttB1 recombination site in bold and thrombin protease cleavage site in italics) and 5′-[…]-3′ (with AttB2 recombination site in bold) which conferred Gateway recombination sites. The PCR product was used in a BP recombination reaction with pDONR221 to generate pENTR Thm-PDE10A2(S449-D789) which was DNA sequence verified and then used in an LR recombination reaction with a Gateway modified version of pET11a. The resulting expression vector, placT7.2H6-(gwl)-Thm-PDE10A2(S449-D789) was DNA sequence confirmed and transformed into E. coli strain BL21(DE3) pLysS and recombinant protein was produced in TB medium at 20° C. by induction to a final IPTG concentration of 0.5 mM at an optical density of 1.0 at 600 nm for 20 hours. About 30% of the protein was in the soluble fraction of the cell homogenate. The protein was purified using sequential chromatography on Ni-NTA and HiTrapQ/HiTrapS. After thrombin digest at room temperature a HiTrapChelating/HiTrap Benzamindin chromatography removed impurities, uncleaved protein and thrombin. Final purification of PDE10A2(S449-D789) was performed on a Superdex 75 size exclusion chromatography equilibrated with 25 mM HEPES pH 8.4, 0.15 M NaCl. The yield of pure protein was 2 mg/liter of culture volume is relatively low. The purity of the protein was >95%, monomeric and monodisperse as shown by SDS-PAGE, HPLC and analytical ultracentrifugation.

T1 sequence (Q9Y233 715-1055): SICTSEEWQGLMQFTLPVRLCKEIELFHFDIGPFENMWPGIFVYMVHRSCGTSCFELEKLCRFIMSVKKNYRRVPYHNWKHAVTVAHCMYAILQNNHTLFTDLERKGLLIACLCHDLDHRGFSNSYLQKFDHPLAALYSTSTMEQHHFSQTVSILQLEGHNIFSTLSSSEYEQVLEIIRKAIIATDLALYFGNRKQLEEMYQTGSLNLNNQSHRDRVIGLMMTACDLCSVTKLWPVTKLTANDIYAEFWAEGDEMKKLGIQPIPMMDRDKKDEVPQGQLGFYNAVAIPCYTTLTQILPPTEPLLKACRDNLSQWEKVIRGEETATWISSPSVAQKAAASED

Structure (SMILES) | IC50 [nM]
O=c1ccn(-c2ccncc2)nc1-c1ccnn1-c1ccnc2ccccc12 [Example 20, 1-Pyridin-4-yl-3-(2-quinolin-4-yl-2H-pyrazol-3-yl)-1H-pyridazin-4-one] | 9
O=c1ccn(-c2ccncc2)nc1-c1ccnn1-c1cccc(Cl)n1 [Example 1, 3-[2-(6-Chloro-pyridin-2-yl)-2H-pyrazol-3-yl]-1-pyridin-4-yl-1H-pyridazin-4-one] | 8100
COC(=O)c1cccc(-n2nccc2-c2nn(-c3ccncc3)ccc2=O)c1 [Example 10, 3-[5-(4-Oxo-1-pyridin-4-yl-1,4-dihydro-pyridazin-3-yl)-pyrazol-1-yl]-benzoic acid methyl ester] | 48
O=c1ccn(-c2cncc(Cl)c2)nc1-c1ccnn1-c1cccc(Cl)c1 [Example 53, 3-[2-(3-Chloro-phenyl)-2H-pyrazol-3-yl]-1-(5-chloro-pyridin-3-yl)-1H-pyridazin-4-one] | 65
O=c1ccn(-c2ccc3ncccc3c2)nc1-c1ccnn1-c1cccc(Cl)c1 [Example 103, 3-[2-(3-Chloro-phenyl)-2H-pyrazol-3-yl]-1-quinolin-6-yl-1H-pyridazin-4-one] | 7
O=c1ccn(-c2ccncc2)nc1-c1ccnn1-c1cccc(Cl)c1 [Example 18, 3-[2-(3-Chloro-phenyl)-2H-pyrazol-3-yl]-1-pyridin-4-yl-1H-pyridazin-4-one] | 140
O=c1ccn(-c2ccncc2)nc1-c1ccnn1-c1cncc2ccccc12 [Example 73, 3-(2-Isoquinolin-4-yl-2H-pyrazol-3-yl)-1-pyridin-4-yl-1H-pyridazin-4-one] | 188
O=c1ccn(-c2cncc(C(F)(F)F)c2)nc1-c1ccnn1-c1ccnc2ccccc12 [Example 71, 3-(2-Quinolin-4-yl-2H-pyrazol-3-yl)-1-(5-trifluoromethyl-pyridin-3-yl)-1H-pyridazin-4-one] | 56
O=c1ccn(-c2cncc(OC(F)F)c2)nc1-c1ccnn1-c1ccccc1F [Example 74, 1-(5-Difluoromethoxy-pyridin-3-yl)-3-[2-(2-fluoro-phenyl)-2H-pyrazol-3-yl]-1H-pyridazin-4-one] | 27
CN(C)S(=O)(=O)c1cccc(-n2nccc2-c2nn(-c3ccncc3)ccc2=O)c1 [Example 28, N,N-Dimethyl-3-[5-(4-oxo-1-pyridin-4-yl-1,4-dihydro-pyridazin-3-yl)-pyrazol-1-yl]-benzenesulfonamide] | 3230
O=c1ccn(-c2ccnc(C(F)(F)F)c2)nc1-c1ccnn1-c1ccccc1F [Example 94, 3-[2-(2-Fluoro-phenyl)-2H-pyrazol-3-yl]-1-(2-trifluoromethyl-pyridin-4-yl)-1H-pyridazin-4-one] | 281
O=c1ccn(-c2ccc3ncccc3c2)nc1-c1ccnn1-c1ccccc1F [Example 102, 3-[2-(2-Fluoro-phenyl)-2H-pyrazol-3-yl]-1-quinolin-6-yl-1H-pyridazin-4-one] | 20
O=c1ccn(-c2ccncc2)nc1-c1ccnn1-c1ccnc2ccc(Cl)cc12 [Example 72, 3-[2-(6-Chloro-quinolin-4-yl)-2H-pyrazol-3-yl]-1-pyridin-4-yl-1H-pyridazin-4-one] | 78
O=c1ccn(-c2cncc(OC(F)F)c2)nc1-c1ccnn1-c1cccc2ncccc12 [Example 89, 1-(5-Difluoromethoxy-pyridin-3-yl)-3-(2-quinolin-5-yl-2H-pyrazol-3-yl)-1H-pyridazin-4-one] | 46
CS(=O)(=O)c1cncc(-n2ccc(=O)c(-c3ccnn3-c3cccc(F)c3)n2)c1 [Example 45, 3-[2-(3-Fluoro-phenyl)-2H-pyrazol-3-yl]-1-(5-methanesulfonyl-pyridin-3-yl)-1H-pyridazin-4-one] | 259
O=c1ccn(-c2cccnc2)nc1-c1ccnn1-c1ccccn1 [Example 33, 1-Pyridin-3-yl-3-(2-pyridin-2-yl-2H-pyrazol-3-yl)-1H-pyridazin-4-one] | 2940

Structure (SMILES) | IC50 [nM]
O=c1ccn(-c2ccncc2)nc1-c1ccnn1-c1ccc(F)cc1 [Example 7, 3-[2-(4-Fluoro-phenyl)-2H-pyrazol-3-yl]-1-pyridin-4-yl-1H-pyridazin-4-one] | 183
Cc1cncc(-n2ccc(=O)c(-c3ccnn3-c3ccnc4cc(Cl)ccc34)n2)c1 [Example 82, 3-[2-(7-Chloro-quinolin-4-yl)-2H-pyrazol-3-yl]-1-(5-methyl-pyridin-3-yl)-1H-pyridazin-4-one] | 102
O=c1ccn(-c2cccnc2)nc1-c1ccnn1-c1cccc(F)c1 [Example 35, 3-[2-(3-Fluoro-phenyl)-2H-pyrazol-3-yl]-1-pyridin-3-yl-1H-pyridazin-4-one] | 285
O=c1ccn(-c2cncc(C(F)(F)F)c2)nc1-c1ccnn1-c1ccccc1F [Example 68, 3-[2-(2-Fluoro-phenyl)-2H-pyrazol-3-yl]-1-(5-trifluoromethyl-pyridin-3-yl)-1H-pyridazin-4-one] | 178
O=c1ccn(-c2cccnc2)nc1-c1ccnn1-c1ccc2c(c1)OCO2 [Example 32, 3-(2-Benzo[1,3]dioxol-5-yl-2H-pyrazol-3-yl)-1-pyridin-3-yl-1H-pyridazin-4-one] | 150
Cc1cncc(-n2ccc(=O)c(-c3ccnn3-c3ccnc4ccc(F)cc34)n2)c1 [Example 48, 3-[2-(6-Fluoro-quinolin-4-yl)-2H-pyrazol-3-yl]-1-(5-methyl-pyridin-3-yl)-1H-pyridazin-4-one] | 25
Cc1cc(-n2nccc2-c2nn(-c3ccncc3)ccc2=O)ccn1 [Example 19, 3-[2-(2-Methyl-pyridin-4-yl)-2H-pyrazol-3-yl]-1-pyridin-4-yl-1H-pyridazin-4-one] | 417
O=c1ccn(-c2ccc3cnccc3c2)nc1-c1ccnn1-c1ccccc1F [Example 100, 3-[2-(2-Fluoro-phenyl)-2H-pyrazol-3-yl]-1-isoquinolin-6-yl-1H-pyridazin-4-one] | 31
Cc1cc(-n2ccc(=O)c(-c3ccnn3-c3ccc4c(c3)OCCO4)n2)ccn1 [Example 38, 3-[2-(2,3-Dihydro-benzo[1,4]dioxin-6-yl)-2H-pyrazol-3-yl]-1-(2-methyl-pyridin-4-yl)-1H-pyridazin-4-one] | 437
O=c1ccn(-c2ccc(C(F)(F)F)nc2)nc1-c1ccnn1-c1cccc2ncccc12 [Example 80, 3-(2-Quinolin-5-yl-2H-pyrazol-3-yl)-1-(6-trifluoromethyl-pyridin-3-yl)-1H-pyridazin-4-one] | 72
O=c1ccn(-c2cncc(F)c2)nc1-c1ccnn1-c1ccnc2ccc(F)cc12 [Example 49, 1-(5-Fluoro-pyridin-3-yl)-3-[2-(6-fluoro-quinolin-4-yl)-2H-pyrazol-3-yl]-1H-pyridazin-4-one] | 163
O=c1ccn(-c2ccncc2)nc1-c1ccnn1-c1ccccc1Cl [Example 12, 3-[2-(2-Chloro-phenyl)-2H-pyrazol-3-yl]-1-pyridin-4-yl-1H-pyridazin-4-one] | 228
O=c1ccn(-c2cncc(Cl)c2)nc1-c1ccnn1-c1ccnc2ccccc12 [Example 51, 1-(5-Chloro-pyridin-3-yl)-3-(2-quinolin-4-yl-2H-pyrazol-3-yl)-1H-pyridazin-4-one] | 20
O=c1ccn(-c2ccncc2)nc1-c1ccnn1-c1cccc(Br)c1 [Example 97, 3-[2-(3-Bromo-phenyl)-2H-pyrazol-3-yl]-1-pyridin-4-yl-1H-pyridazin-4-one] | 17
Cc1cncc(-n2ccc(=O)c(-c3ccnn3-c3ccccc3F)n2)c1 [Example 90, 3-[2-(2-Fluoro-phenyl)-2H-pyrazol-3-yl]-1-(5-methyl-pyridin-3-yl)-1H-pyridazin-4-one] | 90
